Assay results from patent US20180303772A1, “5-HYDROXYTRYPTAMINE 1B RECEPTOR-STIMULATING AGENT FOR THE TREATMENT OF MYOCARDIAL INFARCTION” (INSTITUT PASTEUR, priority 2015, published 2018).
Counter-ions that a name gives are not always drawn.

Experiments:
5-HT1BR = 5-HT1BR (Mus musculus, UniProt P28334)
Description: Counting was done based on the endogenous fluorescence. […] (d) Number of vessels (counted with endogenous GFP from Flk1^GFP/+ mouse) in fluoxetine, fluoxetine and 5HT1B inhibitor, inhibitor alone per mm^2 in the heart.
Statistical analysis was performed using GraphPad Prism software using appropriate tests (non-parametric Mann-Whitney unless specified) and a minimum of 95% confidence interval for significance; p values indicated on figures are <0.05 (*), <0.01 (**), and <0.001 (***). Figures display average values of all animals tested ±SD

Flk1^GFP/+ mice = assay: Vessel number in the heart of Flk1GFP/+ mice after 6 weeks of fluoxetine; format: in vivo; settings: fluoxetine 18 mg/Kg
Excerpt: Counting was done based on the endogenous fluorescence. (b-c) Cryo-sections of the heart of Flk1^GFP/+ mice treated with placebo (b) or fluoxetine (c). Endogenous GFP levels are shown. (d) Number of vessels (counted with endogenous GFP from Flk1^GFP/+ mouse) in fluoxetine, fluoxetine and 5HT1B inhibitor, inhibitor alone per mm^2 in the heart. (e-f) Haematoxylin and eosin staining of heart of the placebo and the fluoxetine treated mice. (g) Quantification of the infarcted area with or without fluoxetine treatment.
(§1) Hearts were carefully dissected and snap frozen in liquid-nitrogen-cooled OCT for a few minutes and stored at −80° C. prior to cryosectioning (10 μm sections). Sections were kept at room temperature overnight before staining. Sections were then rehydrated in PBS for 10 minutes and fixed in 10% formalin for 3 minutes. The sections were then routinely stained with haematoxylin and eosin (HE) using an automated stain machine or manually with red sirius.
Statistical analysis was performed using GraphPad Prism software using appropriate tests (non-parametric Mann-Whitney unless specified) and a minimum of 95% confidence interval for significance; p values indicated on figures are <0.05 (*), <0.01 (**), and <0.001 (***). Figures display average values of all animals tested ±SD […]

C57Bl/6 mice = assay: Ischemia reperfusion (myocardial infarct), infarcted area by histology; format: in vivo; settings: C57Bl/6 mice treated with fluoxetine for 6 weeks
Description: (e-f) Haematoxylin and eosin staining of heart of the placebo and the fluoxetine treated mice. (g) Quantification of the infarcted area with or without fluoxetine treatment.
Animals were anesthetized with ketamine (Imalgene1000 100 mg/Kg Merial) and Xylazine (Rompun2% 20 mg/Kg Bayer) prior to injury. Animals were hydrated and treated with analgesic (Buprenorphin Axience 0.3 mg/kg) twice a day for 4 days following injury.
as §1
For image analysis (fibrosis quantification) ImageJ 1.46r software was using between different photos randomly taken per section and 3 sections minimum per experimental group. The pictures were converted in a binary image and the pixel values then collected.
Statistical analysis was performed using GraphPad Prism software using appropriate tests (non-parametric Mann-Whitney unless specified) and a minimum of 95% confidence interval for significance; p values indicated on figures are <0.05 (*), <0.01 (**), and <0.001 (***). […]

Chain of 5-HT1BR (P28334 whole entry): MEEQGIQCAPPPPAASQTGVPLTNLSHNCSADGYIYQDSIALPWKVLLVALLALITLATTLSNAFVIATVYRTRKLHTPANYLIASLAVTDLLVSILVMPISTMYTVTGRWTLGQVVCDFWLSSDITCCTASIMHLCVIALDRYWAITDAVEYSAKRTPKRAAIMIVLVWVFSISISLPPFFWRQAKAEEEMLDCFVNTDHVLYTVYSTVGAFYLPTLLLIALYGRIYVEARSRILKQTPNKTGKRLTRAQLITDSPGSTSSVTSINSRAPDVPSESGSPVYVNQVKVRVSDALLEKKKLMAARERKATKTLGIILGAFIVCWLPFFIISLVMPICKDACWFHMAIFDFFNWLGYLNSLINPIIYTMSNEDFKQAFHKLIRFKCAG

SMILES | effect of 5-HT1BR inhibition on the fluoxetine-induced increase in vessel number in the heart (5-HT1BR; GR127935 hydrochloride in osmotic pump together with fluoxetine treatment) | vessel number in the heart (Flk1^GFP/+ mice; 6 weeks IP, placebo 932.9±186, p=0.017) [vessels] | vessel number in the heart (Flk1^GFP/+ mice; 6 weeks PO, placebo 932.9±186, p=0.03) [vessels] | infarcted area at the histological level (C57Bl/6 mice; 3 days after infarct, placebo 53126±11849, p=0.02) [pixels] | infarcted area, first observation after ischemia reperfusion (C57Bl/6 mice; control 5%) | vessel number in the heart (5-HT1BR; fluoxetine and PBS treated mice) [vessels per mm^2]
COc1ccc(NC(=O)c2ccc(-c3ccc(-c4noc(C)n4)cc3C)cc2)cc1N1CCN(C)CC1 [GR127935 hydrochloride] | no increase in the vessel number in the heart was observed | – | – | – | – | –
CNCCC(Oc1ccc(C(F)(F)F)cc1)c1ccccc1 (stereo not drawn) [fluoxetine] | – | 1634±608 | 1474±375 | 36690±7884 | 25 % of total area | 1697±702
